ChEMBL document CHEMBL6071161, “Drug repurposing against antibiotic resistant bacterial pathogens” (2024)
In brackets after ≈: the same amount, converted by molar mass.

Key:
Format in all cases: functional
Enterococcus faecalis [1] = test: Antimicrobial activity against Enterococcus faecalis ATCC 29212 assessed as reduction in microbial growth incubated for 16 to 20 hrs by CLSI-protocol based Mueller-Hinton broth assay; conditions: time 16-20 hrs
Neisseria gonorrhoeae [2] = test: Antibacterial activity against resistant Neisseria gonorrhoeae assessed inhibition of bacterial growth
Neisseria gonorrhoeae [3] = test: Antibacterial activity against Neisseria gonorrhoeae ATCC 49226 assessed as reduction in bacterial growth incubated for 20 to 24 hrs by CLSI-based protocol based two-fold serial microdilution method; conditions: time 20-24 hrs
Pseudomonas aeruginosa [4] = test: Antibacterial activity against Pseudomonas aeruginosa assessed as inhibition of bacterial growth incubated for 24 hrs by broth microdilution method
Staphylococcus aureus [5] = test: Antimicrobial activity against Staphylococcus aureus ATCC 25923 assessed as reduction in microbial growth after 24 hrs by CLSI based broth microdilution method
Klebsiella pneumoniae [6] = test: Antibacterial activity against Klebsiella pneumoniae ATCC 700603 assessed as reduction in bacterial growth by microbroth dilution assay
Helicobacter pylori [7] = test: Antibacterial activity against Helicobacter pylori ATCC 43504 assessed as reduction in bacterial growth incubated for 24 hrs by broth micro-dilution method
Pseudomonas aeruginosa [8] = test: Antibacterial activity against Pseudomonas aeruginosa ATCC 27853 assessed as reduction in bacterial growth by broth microdilution method
Staphylococcus aureus [9] = test: Antimicrobial activity against […] Staphylococcus aureus ATCC 25923 assessed as reduction in microbial growth by CLSI protocol based analysis
Staphylococcus aureus [10] = test: Antimicrobial activity against methicillin-sensitive Staphylococcus aureus ATCC 29213 assessed as reduction in bacterial growth by CLSI protocol based analysis
Klebsiella pneumoniae [11] = test: Antibacterial activity against Klebsiella pneumoniae ATCC 10031 assessed as reduction in microbial growth after 24 hrs by two-fold serial dilution method
Pseudomonas aeruginosa [12] = test: Antibacterial activity against Pseudomonas aeruginosa PAO1 assessed as bacterial growth inhibition measured after 18 hrs by CLSI protocol based two-fold serial microdilution method
Staphylococcus aureus [13] = test: Antimicrobial activity against methicillin-resistant Staphylococcus aureus ATCC 29213 assessed as reduction in microbial growth by CLSI brith micro-dilution method
Staphylococcus aureus [14] = test: Antibacterial activity against vancomycin-resistant Staphylococcus aureus VRS 1 assessed as reduction in bacterial growth
Staphylococcus aureus [15] = test: Antibacterial activity against Staphylococcus aureus RN4220 assessed as inhibition of microbial growth
Helicobacter pylori [16] = test: Antibacterial activity against Helicobacter pylori assessed as inhibition of bacterial growth by broth micro-dilution assay
Staphylococcus aureus [17] = test: Antibacterial activity against Staphylococcus aureus ATCC 25923 assessed as reduction in microbial growth after 24 hrs by two-fold serial dilution method
Enterococcus faecium [18] = test: Antibacterial activity against Enterococcus faecium
Helicobacter pylori [19] = test: Antibacterial activity against Helicobacter pylori ATCC 700392 assessed as reduction in bacterial growth incubated for 24 hrs by broth micro-dilution method
Enterococcus faecium [20] = test: Antibacterial activity against vancomycin-resistant Enterococcus faecium assessed as reduction in bacterial growth CLSI-based double dilution method
Staphylococcus aureus [21] = test: Antibacterial activity against methicillin-resistant Staphylococcus aureus ATCC 43300 assessed as reduction in bacterial growth by CLSI protocol based two-fold serial broth microdilution method
Enterococcus faecalis [22] = test: Antibacterial activity against […] Enterococcus faecalis ATCC 29212 assessed as reduction in bacterial growth by CLSI protocol based two-fold serial broth microdilution method
Neisseria gonorrhoeae [23] = test: Antibacterial activity against Neisseria gonorrhoeae
Acinetobacter baumannii = test: Antibacterial activity against Acinetobacter baumannii BAA-1605 assessed as reduction in bacterial growth
Enterococcus faecium [24] = test: Antibacterial activity against Enterococcus faecium assessed as reduction in bacterial growth
Staphylococcus aureus [25] = test: Antibiofilm activity against Staphylococcus aureus ATCC 25923 assessed as inhibition of biofilm formation incubated for 24 hrs by crystal violet staining based analysis
Staphylococcus aureus [26] = test: Antibacterial activity against methicillin-resistant Staphylococcus aureus ATCC 43300 assessed as reduction in bacterial growth by CLSI protocol based broth micro-dilution method
Pseudomonas aeruginosa [27] = test: Antibacterial activity against Pseudomonas aeruginosa ATCC 27853 assessed as bacterial growth inhibition measured after 18 hrs by CLSI protocol based two-fold serial microdilution method

Q: `CC(C)Oc1ccc(/C=N/NC(=N)N/N=C/c2ccc(OC(C)C)cc2)cc1` was tested. Which MIC (Enterococcus faecalis [1]) did it give?
A: 1 µg/mL

Q: For `NC(=O)c1ccccc1O` [SALICYLAMIDE], which MIC (Neisseria gonorrhoeae [2]) is on record?
A: 8 µg/mL (≈ 58.3 µM)

Q: `Cc1c(Cl)cccc1Nc1ccccc1C(=O)O` [TOLFENAMIC ACID] was tested. Which MIC50 (Neisseria gonorrhoeae [2]) did it give?
A: 4 µg/mL (≈ 15.3 µM)

Q: Which MIC (Neisseria gonorrhoeae [3]) does the source give for `Oc1c(I)cc(Cl)c2cccnc12` [CLIOQUINOL] here?
A: 0.28 µM (≈ 0.0855 µg/mL)

Q: How did the MIC50 (Neisseria gonorrhoeae [2]) turn out when `O=C(O)c1ccccc1Nc1cccc(C(F)(F)F)c1` [FLUFENAMIC ACID] was run?
A: 4 µg/mL (≈ 14.2 µM)

Q: `NC[C@H]1O[C@H](O[C@H]2[C@H](O)[C@@H](O[C@H]3O[C@H](CO)[C@@H](O)[C@H](N)[C@H]3O)[C@H](N)C[C@@H]2N)[C@H](N)C[C@@H]1O` [TOBRAMYCIN] was tested. Which MIC90 (Pseudomonas aeruginosa [4]) did it give?
A: 2.2 µg/mL (≈ 4.71 µM)

Q: For `Oc1cccc2cccnc12` [OXYQUINOLINE], which MIC (Neisseria gonorrhoeae [3]) is on record?
A: 0.08 µM (≈ 0.0116 µg/mL)

Q: `CN(C)C(=S)SSC(=S)N(C)C` [THIRAM] was tested. Which MIC90 (Staphylococcus aureus [5]) did it give?
A: 4 µg/mL

Q: For `Nc1c2ccccc2nc2ccccc12` [AMINACRINE], which MIC (Klebsiella pneumoniae [6]) is on record?
A: 8 µg/mL (≈ 41.2 µM)

Q: `CN[C@H]1CC[C@@H](c2ccc(Cl)c(Cl)c2)c2ccccc21` [SERTRALINE] was tested. Which MIC (Helicobacter pylori [7]) did it give?
A: 32 µg/mL (≈ 104 µM)

Q: `CC/C(=C(\c1ccc(O)cc1)c1ccc(OCCN(C)C)cc1)c1ccccc1` [AFIMOXIFENE] was tested. Which MIC (Pseudomonas aeruginosa [8]) did it give?
A: 16 µg/mL (≈ 41.3 µM)

Q: How did the MIC (Staphylococcus aureus [9]) turn out when `CC1=NN(c2ccc(C)c(C)c2)C(=O)/C1=N\Nc1cccc(-c2cccc(C(=O)O)c2)c1O` [ELTROMBOPAG] was run?
A: 2 µg/mL

Q: What about the MIC (Staphylococcus aureus [10]) of the same compound?
A: 2 µg/mL (≈ 4.52 µM)

Q: With `CC/C(=C(\c1ccccc1)c1ccc(OCCNC)cc1)c1ccccc1` [N-DESMETHYLTAMOXIFEN] as the compound, how does the MIC (Pseudomonas aeruginosa [8]) read?
A: 16 µg/mL (≈ 44.8 µM)

Q: How did the MIC (Neisseria gonorrhoeae [3]) turn out when `Oc1c(I)cc(I)c2cccnc12` [IODOQUINOL] was run?
A: 0.1 µM (≈ 0.0397 µg/mL)

Q: How did the MIC (Klebsiella pneumoniae [11]) turn out when `Cc1cc(C2CCCCC2)n(O)c(=O)c1` [CICLOPIROX] was run?
A: 5 µg/mL

Q: How did the MIC (Pseudomonas aeruginosa [12]) turn out when `N[C@@H](CC(=O)N1CCn2c(nnc2C(F)(F)F)C1)Cc1cc(F)c(F)cc1F` [SITAGLIPTIN] was run?
A: 16 µg/mL (≈ 39.3 µM)

Q: For `Cc1ccc(-c2cc(C(F)(F)F)nn2-c2ccc(S(N)(=O)=O)cc2)cc1` [CELECOXIB], which MIC (Staphylococcus aureus [13]) is on record?
A: 32 µg/mL

Q: And the MIC (Staphylococcus aureus [14])?
A: 128 µg/mL (≈ 336 µM)

Q: Which MIC (Staphylococcus aureus [15]) does the source give for `O=C(Nc1cc(Cl)cc(Cl)c1O)c1c(O)c(Cl)cc(Cl)c1Cl` [OXYCLOZANIDE] here?
A: 0.125 µg/mL

Q: Which MIC (Helicobacter pylori [16]) does the source give for `O=C(O)C(=O)CBr` [BROMOPYRUVATE] here?
A: 32 µg/mL (≈ 192 µM)

Q: `COc1cc(/C=C/C(=O)CC(=O)/C=C/c2ccc(O)c(OC)c2)ccc1O` [CURCUMIN] was tested. Which MIC (Staphylococcus aureus [17]) did it give?
A: 100 µg/mL

Q: Which MIC (Enterococcus faecium [18]) does the source give for `CN[C@H](CC(C)C)C(=O)N[C@H]1C(=O)N[C@@H](CC(N)=O)C(=O)N[C@H]2C(=O)N[C@H]3C(=O)N[C@H](C(=O)N[C@H](C(=O)O)c4cc(O)cc(O)c4-c4cc3ccc4O)[C@H](O)c3ccc(c(Cl)c3)Oc3cc2cc(c3O[C@@H]2O[C@H](CO)[C@@H](O)[C@H](O)[C@H]2O[C@H]2C[C@](C)(N)[C@H](O)[C@H](C)O2)Oc2ccc(cc2Cl)[C@H]1O` [VANCOMYCIN] here?
A: 8 µg/mL (≈ 5.52 µM)

Q: For `COCCOC(=O)C1=C(C)NC(C)=C(C(=O)OC(C)C)C1c1cccc([N+](=O)[O-])c1` (stereo not given) [NIMODIPINE], which MIC (Helicobacter pylori [19]) is on record?
A: 4 µg/mL (≈ 9.56 µM)

Q: `O=C(Nc1ccc([N+](=O)[O-])cc1Cl)c1cc(Cl)ccc1O` [NICLOSAMIDE] was tested. Which MIC (Enterococcus faecium [20]) did it give?
A: 1 µg/mL (≈ 3.06 µM)

Q: And the MIC (Staphylococcus aureus [21])?
A: 0.06 µg/mL (≈ 0.183 µM)

Q: What about the MIC (Enterococcus faecalis [22]) of the same compound?
A: 0.125 µg/mL (≈ 0.382 µM)

Q: Which MIC (Neisseria gonorrhoeae [23]) does the source give for `CN(C)Cc1ccc2c(Cl)cc(Cl)c(O)c2n1` here?
A: 0.31 µg/mL (≈ 1.14 µM)

Q: `Oc1c(Cl)cc(Cl)c2cccnc12` [CHLOROXINE] was tested. Which MIC (Neisseria gonorrhoeae [3]) did it give?
A: 0.28 µM (≈ 0.0599 µg/mL)

Q: Which MIC (Helicobacter pylori [19]) does the source give for `CCOC(=O)C1=C(C)NC(C)=C(C(=O)OC)C1c1cccc([N+](=O)[O-])c1` (stereo not given) [NITRENDIPINE] here?
A: 4 µg/mL (≈ 11.1 µM)

Q: With `CO[C@@]12[C@H](COC(N)=O)C3=C(C(=O)C(C)=C(N)C3=O)N1C[C@@H]1N[C@@H]12` [MITOMYCIN] as the compound, how does the MIC (Acinetobacter baumannii) read?
A: 20 µg/mL (≈ 59.8 µM)

Q: `O=C(Nc1ccc(C(F)(F)F)cc1)Nc1ccc(C(F)(F)F)cc1` was tested. Which MIC (Enterococcus faecium [24]) did it give?
A: 1.6 µM (≈ 0.557 µg/mL)

Q: What about the MBEC (Staphylococcus aureus [25]) of the same compound?
A: 0.78 µmol/L

Q: `CC[C@H](c1ccc(O)cc1)[C@@H](CC)c1ccc(O)cc1` [HEXESTROL] was tested. Which MIC (Staphylococcus aureus [26]) did it give?
A: 16 µg/mL (≈ 59.2 µM)

Q: How did the MIC (Pseudomonas aeruginosa [27]) turn out when `CN[C@@H]1[C@@H](O[C@H]2O[C@H](CO)[C@@H](N)[C@H](O)[C@H]2O)O[C@H]2C[C@@H](N)[C@@H](O[C@H]3[C@H](O)[C@@H](O)[C@H](N)C[C@@H]3N)O[C@@H]2[C@@H]1O` was run?
A: 32 µg/mL (≈ 59.3 µM)
